Test results published in US20110163045A1, “METHOD AND SYSTEM FOR TREATING CONTAMINATED WATER” (Ramot at Tel-Aviv University Ltd., priority 2008, published 2011).
Values joined by “and” are separate entries in the source; they are usually repeats but may differ in a detail not shown here. Identical values can stand only once.

experiment: not given; settings: UV fluence of 50 mJ/cm^2; cited from earlier work

SMILES	Degradation of TCP via direct photolytic process
Oc1nc(Cl)c(Cl)cc1Cl [TCP, 3,5,6-trichloro-2-pyridinol]	approximately 40%

same assay, conditions: pH 5; cited from earlier work

SMILES	Photodegradation rate, constant maximum value
Oc1nc(Cl)c(Cl)cc1Cl [TCP, 3,5,6-trichloro-2-pyridinol]	6.40×10^−3 cm^2 mJ^−1

experiment: Direct UV photolytic degradation of single contaminants in deionized water (collimated beam MP Hg lamp, HPLC/MS/MS); type: physicochemical; settings: 1 mg/l
Protocol: Solutions of tested contaminants were prepared by dissolving one or more contaminant in 150 ml deionized water (DI) at a concentration of 1 mg/l for each contaminant. The solution was then placed into an open 90×50 mm crystallization dish. […] No. 7830-61, from Ace Glass Inc.) housed in a bench scale collimated beam apparatus. […] 0.5 ml samples were removed from the irradiated solution at selected time intervals in order to measure the concentration of the remaining contaminant. Samples were measured in a 1100-Finnigan LCQ HPLC/MS/MS (high performance liquid chromatography/tandem mass spectrometry) apparatus (Agilent), in order to obtain a chromatogram for the sample. The concentration was expressed as the area of the peak observed in the HPLC/MS/MS chromatogram. The degradation kinetics were expressed as a logarithm of the ratio of the concentration (CH) remaining following a dose H of irradiation to initial concentration (C0). Such a logarithm decreased in a linear manner as a function of the dose, as follows: […] The data were fitted using a linear regression approach (with R^2>0.9) resulting in pseudo-first order reaction kinetics which reflect the difference in photodegradation between samples.

SMILES	pH dependence of photolytic degradation
CC(COc1ccc(Oc2ccccc2)cc1)Oc1ccccn1 (stereo not drawn) [PRX, pyriproxyfen]	more rapid at a pH of 5 than at a pH of 3

same assay, conditions: UV direct photolysis

SMILES	Optimal pH for photodegradation
COc1cc(NS(=O)(=O)c2ccc(N)cc2)nc(OC)n1 [SMT, sulfadimethoxine]	5
Cc1cc(NS(=O)(=O)c2ccc(N)cc2)no1 [SMX, sulfamethoxazole]	5

same assay, conditions: changing the pH value from 6 to 8, deionized water

SMILES	Enhancement of photolysis rate
COc1cc(Cc2cnc(N)nc2N)cc(OC)c1OC [TMP, Trimethoprim]	more than 12 fold

same assay, conditions: deionized water, FIG. 21 and FIG. 23, in words

SMILES	pH dependence of rate constant (k) for photolytic degradation
O=C(O)c1cn(C2CC2)c2cc(N3CCNCC3)c(F)cc2c1=O [CPR, Ciprofloxacin]	higher at a pH of 7 than at a pH of 5
COc1cc(NS(=O)(=O)c2ccc(N)cc2)nc(OC)n1 [SMT, sulfadimethoxine]	higher at a relatively low pH (pH 5)
CN(C)[C@@H]1C(O)=C(C(N)=O)C(=O)[C@@]2(O)C(O)=C3C(=O)c4c(O)cccc4[C@@](C)(O)[C@H]3[C@H](O)[C@@H]12 [OTC, oxytetracycline]	higher at a pH of 7 than at a pH of 5
Cc1cc(NS(=O)(=O)c2ccc(N)cc2)no1 [SMX, sulfamethoxazole]	higher at a pH of 5 than at a pH of 7
COc1cc(Cc2cnc(N)nc2N)cc(OC)c1OC [TMP, Trimethoprim]	higher at a relatively high pH (pH 7 or 8)

same assay, conditions: deionized water, in words

SMILES	pH dependence of photolytic degradation
O=C(O)c1cn(C2CC2)c2cc(N3CCNCC3)c(F)cc2c1=O [CPR, Ciprofloxacin]	more rapid at a pH of 7 than at a pH of 5
COc1cc(NS(=O)(=O)c2ccc(N)cc2)nc(OC)n1 [SMT, sulfadimethoxine]	more rapid at a pH of 5 than at a pH of 7
CN(C)[C@@H]1C(O)=C(C(N)=O)C(=O)[C@@]2(O)C(O)=C3C(=O)c4c(O)cccc4[C@@](C)(O)[C@H]3[C@H](O)[C@@H]12 [OTC, oxytetracycline]	more rapid at a pH of 7 than at a pH of 5
Cc1cc(NS(=O)(=O)c2ccc(N)cc2)no1 [SMX, sulfamethoxazole]	more rapid at a pH of 5 than at a pH of 7
COc1cc(Cc2cnc(N)nc2N)cc(OC)c1OC [TMP, Trimethoprim]	more rapid at a pH of 8 than at a pH of 6

same assay, conditions: least favorable tested pH vs optimal pH, deionized water

SMILES	Reduction in UV dose
O=C(O)c1cn(C2CC2)c2cc(N3CCNCC3)c(F)cc2c1=O [CPR, Ciprofloxacin]	80.7%
COc1cc(NS(=O)(=O)c2ccc(N)cc2)nc(OC)n1 [SMT, sulfadimethoxine]	58.3%
Cc1cc(NS(=O)(=O)c2ccc(N)cc2)no1 [SMX, sulfamethoxazole]	73.4%
COc1cc(Cc2cnc(N)nc2N)cc(OC)c1OC [TMP, Trimethoprim]	95% and 95.4%

same assay, conditions: pH 3, deionized water

SMILES	UV dose for 90% removal
CC(COc1ccc(Oc2ccccc2)cc1)Oc1ccccn1 (stereo not drawn) [PRX, pyriproxyfen]	2555.6 mJ/cm^2

same assay, conditions: pH 4, deionized water

SMILES	UV dose for 90% removal
CC(COc1ccc(Oc2ccccc2)cc1)Oc1ccccn1 (stereo not drawn) [PRX, pyriproxyfen]	1352.9 mJ/cm^2

same assay, conditions: pH 5, deionized water

SMILES	UV dose for 90% removal	Irradiation time for 90% degradation
CC(COc1ccc(Oc2ccccc2)cc1)Oc1ccccn1 (stereo not drawn) [PRX, pyriproxyfen]	1277.8 mJ/cm^2	–
Cc1cc(NS(=O)(=O)c2ccc(N)cc2)no1 [SMX, sulfamethoxazole]	–	approximately 4 minutes

same assay, conditions: pH 5, deionized water, polychromatic UV 200-400 nm, 1 mg/l

SMILES	UV dose for 90% degradation
O=C(O)c1cn(C2CC2)c2cc(N3CCNCC3)c(F)cc2c1=O [CPR, Ciprofloxacin]	2091 mJ/cm^2
COc1cc(NS(=O)(=O)c2ccc(N)cc2)nc(OC)n1 [SMT, sulfadimethoxine]	2400 mJ/cm^2
CN(C)[C@@H]1C(O)=C(C(N)=O)C(=O)[C@@]2(O)C(O)=C3C(=O)c4c(O)cccc4[C@@](C)(O)[C@H]3[C@H](O)[C@@H]12 [OTC, oxytetracycline]	5750 mJ/cm^2

same assay, conditions: pH 6, deionized water, polychromatic UV 200-400 nm, 1 mg/l

SMILES	UV dose for 90% degradation
O=C(O)c1cn(C2CC2)c2cc(N3CCNCC3)c(F)cc2c1=O [CPR, Ciprofloxacin]	742 mJ/cm^2
COc1cc(NS(=O)(=O)c2ccc(N)cc2)nc(OC)n1 [SMT, sulfadimethoxine]	3300 mJ/cm^2
CN(C)[C@@H]1C(O)=C(C(N)=O)C(=O)[C@@]2(O)C(O)=C3C(=O)c4c(O)cccc4[C@@](C)(O)[C@H]3[C@H](O)[C@@H]12 [OTC, oxytetracycline]	2556 mJ/cm^2
Cc1cc(NS(=O)(=O)c2ccc(N)cc2)no1 [SMX, sulfamethoxazole]	590 mJ/cm^2
COc1cc(Cc2cnc(N)nc2N)cc(OC)c1OC [TMP, Trimethoprim]	23000 mJ/cm^2

same assay, conditions: pH 7, deionized water

SMILES	Irradiation time for 90% degradation
Cc1cc(NS(=O)(=O)c2ccc(N)cc2)no1 [SMX, sulfamethoxazole]	approximately 12 minutes

same assay, conditions: pH 7, deionized water, polychromatic UV 200-400 nm, 1 mg/l

SMILES	UV dose for 90% degradation
O=C(O)c1cn(C2CC2)c2cc(N3CCNCC3)c(F)cc2c1=O [CPR, Ciprofloxacin]	403 mJ/cm^2
COc1cc(NS(=O)(=O)c2ccc(N)cc2)nc(OC)n1 [SMT, sulfadimethoxine]	5750 mJ/cm^2
CN(C)[C@@H]1C(O)=C(C(N)=O)C(=O)[C@@]2(O)C(O)=C3C(=O)c4c(O)cccc4[C@@](C)(O)[C@H]3[C@H](O)[C@@H]12 [OTC, oxytetracycline]	1643 mJ/cm^2
COc1cc(Cc2cnc(N)nc2N)cc(OC)c1OC [TMP, Trimethoprim]	3833 mJ/cm^2

same assay, conditions: pH 8, deionized water, polychromatic UV 200-400 nm, 1 mg/l

SMILES	UV dose for 90% degradation
COc1cc(Cc2cnc(N)nc2N)cc(OC)c1OC [TMP, Trimethoprim]	1770 mJ/cm2

same assay, conditions: tested pH 3-5, deionized water

SMILES	Reduction in UV dose
CC(COc1ccc(Oc2ccccc2)cc1)Oc1ccccn1 (stereo not drawn) [PRX, pyriproxyfen]	50%

experiment: not given; settings: 5 mg/L hydrogen peroxide, UV fluence of 50 mJ/cm^2; cited from earlier work

SMILES	Degradation of TCP via indirect photolytic process
Oc1nc(Cl)c(Cl)cc1Cl [TCP, 3,5,6-trichloro-2-pyridinol]	50%

experiment: not given; settings: 30 min, pH 5

SMILES	Degradation in mixture
O=C(O)c1cn(C2CC2)c2cc(N3CCNCC3)c(F)cc2c1=O [CPR, Ciprofloxacin]	26%
CN(C)[C@@H]1C(O)=C(C(N)=O)C(=O)[C@@]2(O)C(O)=C3C(=O)c4c(O)cccc4[C@@](C)(O)[C@H]3[C@H](O)[C@@H]12 [OTC, oxytetracycline]	54%
Cc1cc(NS(=O)(=O)c2ccc(N)cc2)no1 [SMX, sulfamethoxazole]	98.4%

same assay, conditions: 60 min

SMILES	Degradation in mixture
O=C(O)c1cn(C2CC2)c2cc(N3CCNCC3)c(F)cc2c1=O [CPR, Ciprofloxacin]	96%
CN(C)[C@@H]1C(O)=C(C(N)=O)C(=O)[C@@]2(O)C(O)=C3C(=O)c4c(O)cccc4[C@@](C)(O)[C@H]3[C@H](O)[C@@H]12 [OTC, oxytetracycline]	91%

same assay, conditions: 60 min, pH 5

SMILES	Degradation in mixture without change of pH, by extrapolation
O=C(O)c1cn(C2CC2)c2cc(N3CCNCC3)c(F)cc2c1=O [CPR, Ciprofloxacin]	53%
CN(C)[C@@H]1C(O)=C(C(N)=O)C(=O)[C@@]2(O)C(O)=C3C(=O)c4c(O)cccc4[C@@](C)(O)[C@H]3[C@H](O)[C@@H]12 [OTC, oxytetracycline]	81%

experiment: not given; settings: cited from earlier work

SMILES	Relevant pKa
COc1cc(NS(=O)(=O)c2ccc(N)cc2)nc(OC)n1 [SMT, sulfadimethoxine]	6.08

experiment: Direct UV photolytic degradation of SMX in synthetic effluent water; type: physicochemical; settings: pH 7, synthetic effluent water
Protocol: Solutions of tested contaminants were prepared by dissolving one or more contaminant in 150 ml deionized water (DI) at a concentration of 1 mg/l for each contaminant. The solution was then placed into an open 90×50 mm crystallization dish.
The aqueous solution was stirred continuously for the duration of the experiment, and irradiated using a 0.45 kW polychromatic medium-pressure (MP) Hg vapor lamp (Ace-Hanovia Lamp Cat. No. 7830-61, from Ace Glass Inc.) housed in a bench scale collimated beam apparatus. The polychromatic irradiation was at ultraviolet (UV) wavelengths in a range of 200-400 nm.
0.5 ml samples were removed from the irradiated solution at selected time intervals in order to measure the concentration of the remaining contaminant. Samples were measured in a 1100-Finnigan LCQ HPLC/MS/MS (high performance liquid chromatography/tandem mass spectrometry) apparatus (Agilent), in order to obtain a chromatogram for the sample. The concentration was expressed as the area of the peak observed in the HPLC/MS/MS chromatogram.
The data were fitted using a linear regression approach (with R^2>0.9) resulting in pseudo-first order reaction kinetics which reflect the difference in photodegradation between samples. The constant k (cm^2/mJ), the degradation rate fluence-based constant, was calculated as the negative slope obtained when the degradation was plotted logarithmically as described hereinabove.
The UV dose required for 90% degradation of the tested contaminants was calculated using the obtained value for k, by inserting the appropriate numbers into the above equation: […]
Synthetic wastewater was prepared as described in Seo et al. and diluted with deionized water to obtain a 70% transmittance at 254 nm, which is typical for wastewater effluents treated by UV irradiation.

SMILES	UV dose for 90% degradation
Cc1cc(NS(=O)(=O)c2ccc(N)cc2)no1 [SMX, sulfamethoxazole]	1643 mJ/cm^2

same assay, conditions: pH 7 vs pH 5, synthetic effluent water

SMILES	Reduction in UV dose
Cc1cc(NS(=O)(=O)c2ccc(N)cc2)no1 [SMX, sulfamethoxazole]	80.8%

same assay, conditions: synthetic effluent water, in words

SMILES	pH dependence of photolytic degradation
Cc1cc(NS(=O)(=O)c2ccc(N)cc2)no1 [SMX, sulfamethoxazole]	more rapid at a pH of 5 than at a pH of 7
